# Test results reported in ChEMBL document CHEMBL1137234, “Correlation between brain/plasma ratios and efficacy in neuropathic pain models of selective metabotropic glutamate receptor 1 antagonists” (Bioorg Med Chem Lett, 2006).
# Columns and labels:
# Rattus norvegicus [1] = test: Efficacy in rat Chung spinal nerve L5/L6 ligation pain model after 30 mins at 100 umol/kg, ip; format: functional
# [2] = target: Metabotropic glutamate receptor 1 (Rattus norvegicus, UniProt P23385); test: Antagonist activity at rat mGluR1 expressed in 1321N1 cells; format: functional, cell-based
# [3] = target: Metabotropic glutamate receptor 5 (Rattus norvegicus, UniProt P31424); test: Antagonist activity at rat mGluR5 expressed in 1321N1 cells; format: functional, cell-based
# Rattus norvegicus [4] = test: Efficacy in ip dosed rat Chung spinal nerve L5/L6 ligation pain model after 30 mins; format: functional; conditions: 0.5 h
# Rattus norvegicus [5] = test: Drug level in rat brain at 30 umol/kg, ip; format: ADME, organism-based; conditions: in vivo
# Rattus norvegicus [6] = species: Rattus norvegicus; test: Free drug level in rat brain; format: ADME, organism-based; conditions: in vivo
# Rattus norvegicus [7] = species: Rattus norvegicus; test: Protein binding in rat brain; format: ADME, organism-based; conditions: in vivo
# Rattus norvegicus [8] = test: Efficacy in ip dosed rat Carrageenan model after 30 mins; format: functional; conditions: 0.5 h
# [9] = target: Metabotropic glutamate receptor 2 (Homo sapiens, UniProt Q14416); test: Antagonist activity at human mGluR2 expressed in 1321N1 cells; format: functional, cell-based
# Rattus norvegicus [10] = test: Efficacy in ip dosed rat osteoarthritic pain model after 30 mins; format: functional; conditions: 0.5 h
# Rattus norvegicus [11] = test: Efficacy in ip dosed rat CFA model after 30 mins; format: functional; conditions: 0.5 h
# [12] = target: Metabotropic glutamate receptor 4 (Homo sapiens, UniProt Q14833); test: Antagonist activity at human mGluR4 expressed in 1321N1 cells; format: functional, cell-based
# Rattus norvegicus [13] = test: Activity in ip dosed rat Rotarod model; format: functional
# Rattus norvegicus [14] = test: Efficacy in ip dosed rat skin incision model after 30 mins; format: functional; conditions: 0.5 h
# [15] = target: Metabotropic glutamate receptor 7 (Homo sapiens, UniProt Q14831); test: Antagonist activity at human mGluR7 expressed in 1321N1 cells; format: functional, cell-based
# Rattus norvegicus [16] = test: Activity in ip dosed rat locomotor model; format: functional
# Rattus norvegicus [17] = test: Efficacy in ip dosed rat formalin model after 30 mins; format: functional; conditions: 0.5 h
# Sequence of Metabotropic glutamate receptor 1 (P23385 whole entry): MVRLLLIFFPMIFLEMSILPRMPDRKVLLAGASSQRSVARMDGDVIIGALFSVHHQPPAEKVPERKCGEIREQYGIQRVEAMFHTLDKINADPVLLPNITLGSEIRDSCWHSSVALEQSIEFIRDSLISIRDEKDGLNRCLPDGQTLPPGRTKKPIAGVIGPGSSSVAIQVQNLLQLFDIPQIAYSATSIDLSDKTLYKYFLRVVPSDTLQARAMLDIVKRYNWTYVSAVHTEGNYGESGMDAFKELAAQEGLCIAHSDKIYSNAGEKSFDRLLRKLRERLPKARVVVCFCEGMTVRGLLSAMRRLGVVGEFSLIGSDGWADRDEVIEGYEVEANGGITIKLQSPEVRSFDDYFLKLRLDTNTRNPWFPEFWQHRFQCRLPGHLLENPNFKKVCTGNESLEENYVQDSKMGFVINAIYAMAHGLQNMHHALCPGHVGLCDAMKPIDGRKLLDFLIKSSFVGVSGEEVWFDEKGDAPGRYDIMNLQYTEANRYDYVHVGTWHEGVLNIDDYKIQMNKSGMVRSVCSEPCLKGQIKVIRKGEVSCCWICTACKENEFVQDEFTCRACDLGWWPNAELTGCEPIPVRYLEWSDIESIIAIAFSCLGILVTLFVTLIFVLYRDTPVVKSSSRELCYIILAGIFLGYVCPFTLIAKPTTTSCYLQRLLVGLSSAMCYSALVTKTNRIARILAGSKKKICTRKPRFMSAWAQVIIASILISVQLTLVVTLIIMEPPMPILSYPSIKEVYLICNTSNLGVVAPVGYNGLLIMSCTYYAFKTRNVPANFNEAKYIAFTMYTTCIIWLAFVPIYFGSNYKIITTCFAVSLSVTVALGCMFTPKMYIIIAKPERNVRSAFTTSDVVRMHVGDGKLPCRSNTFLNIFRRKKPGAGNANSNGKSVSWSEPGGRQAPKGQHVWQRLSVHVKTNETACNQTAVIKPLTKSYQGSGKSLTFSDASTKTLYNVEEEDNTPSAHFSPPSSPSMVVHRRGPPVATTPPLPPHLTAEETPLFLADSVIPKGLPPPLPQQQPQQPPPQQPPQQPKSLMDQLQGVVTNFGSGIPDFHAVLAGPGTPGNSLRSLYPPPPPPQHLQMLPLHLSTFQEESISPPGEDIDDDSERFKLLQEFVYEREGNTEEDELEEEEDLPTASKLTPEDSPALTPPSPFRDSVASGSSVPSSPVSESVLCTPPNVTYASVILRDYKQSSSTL
# Sequence of Metabotropic glutamate receptor 5 (P31424 whole entry): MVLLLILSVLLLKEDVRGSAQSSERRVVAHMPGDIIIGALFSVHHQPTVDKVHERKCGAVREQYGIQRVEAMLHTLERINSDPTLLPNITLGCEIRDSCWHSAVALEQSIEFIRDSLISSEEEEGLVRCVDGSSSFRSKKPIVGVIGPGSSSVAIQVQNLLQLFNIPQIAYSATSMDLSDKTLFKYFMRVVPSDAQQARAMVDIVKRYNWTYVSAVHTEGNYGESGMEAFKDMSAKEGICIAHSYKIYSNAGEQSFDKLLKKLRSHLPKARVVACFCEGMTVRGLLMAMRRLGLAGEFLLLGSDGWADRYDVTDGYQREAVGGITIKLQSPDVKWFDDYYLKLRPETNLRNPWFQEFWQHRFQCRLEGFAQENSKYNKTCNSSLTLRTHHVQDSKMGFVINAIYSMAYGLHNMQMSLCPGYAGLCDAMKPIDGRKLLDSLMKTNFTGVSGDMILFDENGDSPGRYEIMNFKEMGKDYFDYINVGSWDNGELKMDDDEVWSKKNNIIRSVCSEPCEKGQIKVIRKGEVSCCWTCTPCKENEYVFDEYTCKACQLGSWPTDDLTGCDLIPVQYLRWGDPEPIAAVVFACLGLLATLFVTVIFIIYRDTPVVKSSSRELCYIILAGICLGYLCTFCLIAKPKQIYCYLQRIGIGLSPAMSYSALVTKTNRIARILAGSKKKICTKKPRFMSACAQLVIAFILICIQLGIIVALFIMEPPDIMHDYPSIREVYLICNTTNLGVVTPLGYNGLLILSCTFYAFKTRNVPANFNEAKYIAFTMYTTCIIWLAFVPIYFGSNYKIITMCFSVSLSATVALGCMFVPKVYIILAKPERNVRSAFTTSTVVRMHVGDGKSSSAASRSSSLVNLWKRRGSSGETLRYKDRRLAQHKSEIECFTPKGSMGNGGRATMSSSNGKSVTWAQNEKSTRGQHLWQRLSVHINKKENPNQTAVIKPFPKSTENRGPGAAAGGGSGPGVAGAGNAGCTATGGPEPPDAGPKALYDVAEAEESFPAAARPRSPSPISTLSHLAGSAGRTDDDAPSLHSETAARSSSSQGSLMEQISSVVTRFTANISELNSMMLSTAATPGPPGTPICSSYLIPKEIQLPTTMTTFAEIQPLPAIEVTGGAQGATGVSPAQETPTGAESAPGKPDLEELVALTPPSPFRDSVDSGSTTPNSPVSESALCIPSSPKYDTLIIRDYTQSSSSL
# Sequence of Metabotropic glutamate receptor 7 (Q14831 whole entry): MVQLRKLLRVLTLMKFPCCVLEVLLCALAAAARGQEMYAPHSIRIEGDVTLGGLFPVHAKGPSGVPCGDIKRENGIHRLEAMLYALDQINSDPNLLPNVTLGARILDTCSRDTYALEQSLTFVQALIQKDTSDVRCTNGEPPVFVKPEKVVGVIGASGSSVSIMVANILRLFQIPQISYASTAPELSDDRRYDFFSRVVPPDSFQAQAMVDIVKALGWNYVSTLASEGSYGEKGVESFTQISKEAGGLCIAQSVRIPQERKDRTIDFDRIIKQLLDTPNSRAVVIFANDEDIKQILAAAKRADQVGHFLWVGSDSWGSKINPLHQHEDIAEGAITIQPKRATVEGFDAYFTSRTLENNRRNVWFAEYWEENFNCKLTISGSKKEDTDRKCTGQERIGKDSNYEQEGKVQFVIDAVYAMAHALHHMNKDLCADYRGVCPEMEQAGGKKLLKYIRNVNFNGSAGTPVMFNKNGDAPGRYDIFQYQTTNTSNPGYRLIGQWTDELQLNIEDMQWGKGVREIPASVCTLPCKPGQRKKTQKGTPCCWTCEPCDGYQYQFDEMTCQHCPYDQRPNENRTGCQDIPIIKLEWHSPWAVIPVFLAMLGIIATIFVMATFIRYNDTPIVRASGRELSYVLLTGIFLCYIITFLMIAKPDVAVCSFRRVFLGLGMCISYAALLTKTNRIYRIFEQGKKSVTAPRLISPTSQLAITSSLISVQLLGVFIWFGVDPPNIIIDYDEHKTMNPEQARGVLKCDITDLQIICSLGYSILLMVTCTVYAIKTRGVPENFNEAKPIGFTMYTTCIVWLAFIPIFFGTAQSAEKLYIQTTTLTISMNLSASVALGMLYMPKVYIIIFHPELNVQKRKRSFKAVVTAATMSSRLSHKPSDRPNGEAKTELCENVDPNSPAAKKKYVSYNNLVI
# Sequence of Metabotropic glutamate receptor 2 (Q14416 whole entry): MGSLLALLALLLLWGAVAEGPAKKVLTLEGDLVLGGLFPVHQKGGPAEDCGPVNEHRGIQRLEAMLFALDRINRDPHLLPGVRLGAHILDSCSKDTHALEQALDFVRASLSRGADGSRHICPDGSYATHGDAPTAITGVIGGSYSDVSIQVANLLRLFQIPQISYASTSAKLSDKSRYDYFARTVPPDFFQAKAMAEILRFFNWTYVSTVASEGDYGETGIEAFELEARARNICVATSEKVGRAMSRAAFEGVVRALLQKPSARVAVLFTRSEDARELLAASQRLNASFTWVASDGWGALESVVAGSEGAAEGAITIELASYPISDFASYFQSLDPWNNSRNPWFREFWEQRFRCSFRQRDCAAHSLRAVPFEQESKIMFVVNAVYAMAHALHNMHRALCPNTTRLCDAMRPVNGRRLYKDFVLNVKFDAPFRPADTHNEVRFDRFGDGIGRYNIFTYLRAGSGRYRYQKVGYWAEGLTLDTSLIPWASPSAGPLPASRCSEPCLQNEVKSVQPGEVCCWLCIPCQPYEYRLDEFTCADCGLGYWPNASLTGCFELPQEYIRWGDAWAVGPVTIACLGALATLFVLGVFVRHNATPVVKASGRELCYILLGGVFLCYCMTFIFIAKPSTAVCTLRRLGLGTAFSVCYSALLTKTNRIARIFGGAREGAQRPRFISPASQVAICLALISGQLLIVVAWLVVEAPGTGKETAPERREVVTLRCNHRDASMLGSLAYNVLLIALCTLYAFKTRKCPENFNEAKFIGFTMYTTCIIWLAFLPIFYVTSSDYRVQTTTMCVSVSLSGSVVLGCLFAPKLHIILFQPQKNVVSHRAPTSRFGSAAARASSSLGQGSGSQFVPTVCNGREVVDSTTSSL
# Sequence of Metabotropic glutamate receptor 4 (Q14833 whole entry): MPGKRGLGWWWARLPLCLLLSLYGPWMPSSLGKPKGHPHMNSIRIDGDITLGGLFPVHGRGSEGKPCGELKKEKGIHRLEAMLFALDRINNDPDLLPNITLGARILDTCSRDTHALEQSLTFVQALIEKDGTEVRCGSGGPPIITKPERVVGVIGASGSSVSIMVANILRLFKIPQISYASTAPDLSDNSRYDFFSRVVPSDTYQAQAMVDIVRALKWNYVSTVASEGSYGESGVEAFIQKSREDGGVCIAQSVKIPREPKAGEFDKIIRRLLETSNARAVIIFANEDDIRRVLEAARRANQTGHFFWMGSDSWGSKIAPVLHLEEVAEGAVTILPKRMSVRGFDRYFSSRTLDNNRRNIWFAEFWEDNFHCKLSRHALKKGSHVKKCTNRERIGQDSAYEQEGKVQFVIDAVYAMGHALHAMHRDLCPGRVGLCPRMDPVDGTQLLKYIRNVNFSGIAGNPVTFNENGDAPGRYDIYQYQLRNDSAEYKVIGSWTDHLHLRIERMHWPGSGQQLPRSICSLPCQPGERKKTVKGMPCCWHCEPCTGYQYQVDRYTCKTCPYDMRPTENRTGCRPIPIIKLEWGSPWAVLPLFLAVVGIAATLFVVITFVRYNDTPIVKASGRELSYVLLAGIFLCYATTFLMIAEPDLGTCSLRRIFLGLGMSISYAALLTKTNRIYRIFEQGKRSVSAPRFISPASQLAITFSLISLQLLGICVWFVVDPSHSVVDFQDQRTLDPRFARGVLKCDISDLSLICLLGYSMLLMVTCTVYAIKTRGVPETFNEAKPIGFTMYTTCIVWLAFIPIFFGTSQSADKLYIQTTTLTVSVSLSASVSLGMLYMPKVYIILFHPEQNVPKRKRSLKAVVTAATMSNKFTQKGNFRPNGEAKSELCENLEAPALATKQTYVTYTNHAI
SMILES,Efficacy (Rattus norvegicus [1]),IC50 [2],IC50 [3],ED50 (Rattus norvegicus [4]),Activity (Rattus norvegicus [5]),Activity (Rattus norvegicus [6]),Activity (Rattus norvegicus [7]),ED50 (Rattus norvegicus [8]),IC50 [9],ED50 (Rattus norvegicus [10]),ED50 (Rattus norvegicus [11]),IC50 [12],ED50 (Rattus norvegicus [13]),ED50 (Rattus norvegicus [14]),IC50 [15],ED50 (Rattus norvegicus [16]),ED50 (Rattus norvegicus [17])
CCc1ccc(-n2cnc3c(sc4nccc(N(C)CCc5ccccn5)c43)c2=O)cc1,11%,0.052 µM,> 10 µM,–,–,–,–,–,–,–,–,–,–,–,–,–,–
Cc1ccc(-n2cnc3c(sc4cncc(N(C)C)c43)c2=O)cc1F,72%,0.021 µM,> 10 µM,55 µmol/kg,125 ng/g,0.13 ng/g,99.9%,–,–,–,–,–,–,–,–,–,–
CCc1ccc(-n2cnc3c(sc4nccc(N(C)C)c43)c2=O)cc1,41%,0.005 µM,1.33 µM,> 100 µmol/kg,1180 ng/g,25.5 ng/g,97.8%,11 µmol/kg,> 10 µM,29 µmol/kg,15 µmol/kg,> 10 µM,> 300 µmol/kg,47 µmol/kg,> 10 µM,> 100 µmol/kg,19 µmol/kg
C[N+](C)([O-])c1ccnc2sc3c(=O)n(N4CCCCCC4)cnc3c12,12%,0.033 µM,> 10 µM,–,–,–,–,–,–,–,–,–,–,–,–,–,–
CN(C)c1ccnc2sc3c(=O)n(N4CCCCCC4)cnc3c12,100%,0.001 µM,> 10 µM,22 µmol/kg,851 ng/g,–,–,–,–,–,–,–,–,–,–,–,–
